Data as given in the NIST ThermoML archive (doi:10.1016/j.fluid.2015.12.007).

Experiment: xn = mol fraction of the nth substance listed
Settings: 101 kPa, Liquid; for speed of sound: Sing-around technique in a fixed-path interferometer; for mass density: Vibrating tube method

CC(O)CO (centres undefined) [1,2-propanediol] + CCCCn1cc[n+](C)c1.F[B-](F)(F)F
Settings	mass density [kg/m3]	speed of sound [m/s]
293.15 K, x2 = 0.0521	1056.41	1527.9
293.15 K, x2 = 0.1068	1074.4	1532.7
293.15 K, x2 = 0.2089	1101.55	1538.5
293.15 K, x2 = 0.3074	1122.27	1543.9
293.15 K, x2 = 0.4035	1139.05	1549.8
293.15 K, x2 = 0.5031	1153.8	1554.6
293.15 K, x2 = 0.5907	1164.95	1559
293.15 K, x2 = 0.7031	1177.42	1564.6
293.15 K, x2 = 0.8	1187.25	1568.6
293.15 K, x2 = 0.8992	1196.18	1572
298.15 K, x2 = 0.0521	1052.69	1515.3
298.15 K, x2 = 0.1068	1070.64	1520
298.15 K, x2 = 0.2089	1097.72	1526.2
298.15 K, x2 = 0.3074	1118.42	1531.5
298.15 K, x2 = 0.4035	1135.23	1537.5
298.15 K, x2 = 0.5031	1150.01	1542.5
298.15 K, x2 = 0.5907	1161.21	1547
298.15 K, x2 = 0.7031	1173.74	1552.6
298.15 K, x2 = 0.8	1183.62	1556.7
298.15 K, x2 = 0.8992	1192.57	1560.5
303.15 K, x2 = 0.0521	1048.94	1502.2
303.15 K, x2 = 0.1068	1066.85	1507
303.15 K, x2 = 0.2089	1093.89	1513.8
303.15 K, x2 = 0.3074	1114.58	1519.2
303.15 K, x2 = 0.4035	1131.41	1525.3
303.15 K, x2 = 0.5031	1146.23	1530.3
303.15 K, x2 = 0.5907	1157.48	1535
303.15 K, x2 = 0.7031	1170.07	1540.7
303.15 K, x2 = 0.8	1180	1544.9
303.15 K, x2 = 0.8992	1188.99	1549
308.15 K, x2 = 0.0521	1045.16	1488.9
308.15 K, x2 = 0.1068	1063.06	1494
308.15 K, x2 = 0.2089	1090.06	1501.1
308.15 K, x2 = 0.3074	1110.75	1506.8
308.15 K, x2 = 0.4035	1127.62	1513.1
308.15 K, x2 = 0.5031	1142.48	1518.2
308.15 K, x2 = 0.5907	1153.77	1523
308.15 K, x2 = 0.7031	1166.42	1528.9
308.15 K, x2 = 0.8	1176.39	1533.2
308.15 K, x2 = 0.8992	1185.42	1537.5
313.15 K, x2 = 0.0521	1041.36	1475.6
313.15 K, x2 = 0.1068	1059.24	1481.1
313.15 K, x2 = 0.2089	1086.22	1488.5
313.15 K, x2 = 0.3074	1106.92	1494.5
313.15 K, x2 = 0.4035	1123.83	1501
313.15 K, x2 = 0.5031	1138.74	1506.2
313.15 K, x2 = 0.5907	1150.08	1511.1
313.15 K, x2 = 0.7031	1162.79	–
313.15 K, x2 = 0.8	1172.81	1521.7
313.15 K, x2 = 0.8992	1181.86	1526.1
318.15 K, x2 = 0.0521	1037.53	1462.3
318.15 K, x2 = 0.1068	1055.4	1468.1
318.15 K, x2 = 0.2089	1082.38	1476
318.15 K, x2 = 0.3074	1103.1	1482.3
318.15 K, x2 = 0.4035	1120.04	1488.9
318.15 K, x2 = 0.5031	1135.01	1494.3
318.15 K, x2 = 0.5907	1146.4	1499.4
318.15 K, x2 = 0.7031	1159.17	1505.6
318.15 K, x2 = 0.8	1169.23	1510.3
318.15 K, x2 = 0.8992	1178.32	1515

CC(O)CO (centres undefined) [1,2-propanediol] + CCCC[n+]1ccn(C)c1.O=S(=O)([N-]S(=O)(=O)C(F)(F)F)C(F)(F)F
Settings	mass density [kg/m3]	speed of sound [m/s]
293.15 K, x2 = 0.0606	1117.8	1446.5
293.15 K, x2 = 0.1118	1168.99	1406.4
293.15 K, x2 = 0.2003	1234.54	1358.1
293.15 K, x2 = 0.3056	1289.66	1319.6
293.15 K, x2 = 0.408	1328.41	1294.8
293.15 K, x2 = 0.4987	1355.11	1279.5
293.15 K, x2 = 0.602	1379.69	1265.9
293.15 K, x2 = 0.7047	1399.49	1256.2
293.15 K, x2 = 0.7945	1413.97	1249.2
293.15 K, x2 = 0.8971	1428	1243.5
298.15 K, x2 = 0.0606	1113.84	1435.8
298.15 K, x2 = 0.1118	1164.21	1395.8
298.15 K, x2 = 0.2003	1230.02	1345.7
298.15 K, x2 = 0.3056	1284.95	1307.6
298.15 K, x2 = 0.408	1323.62	1283.1
298.15 K, x2 = 0.4987	1350.28	1268
298.15 K, x2 = 0.602	1374.74	1254.5
298.15 K, x2 = 0.7047	1394.49	1244.9
298.15 K, x2 = 0.7945	1409	1238
298.15 K, x2 = 0.8971	1423.19	1232.2
303.15 K, x2 = 0.0606	1109.82	1422.8
303.15 K, x2 = 0.1118	1161.05	1382.1
303.15 K, x2 = 0.2003	1225.5	1333.5
303.15 K, x2 = 0.3056	1280.27	1295.7
303.15 K, x2 = 0.408	1318.85	1271.4
303.15 K, x2 = 0.4987	1345.27	1256.6
303.15 K, x2 = 0.602	1369.61	1243.2
303.15 K, x2 = 0.7047	1389.48	1233.8
303.15 K, x2 = 0.7945	1404.07	1226.9
303.15 K, x2 = 0.8971	1418.39	1221.1
308.15 K, x2 = 0.0606	1105.77	1408.7
308.15 K, x2 = 0.1118	1156.91	1367.8
308.15 K, x2 = 0.2003	1220.98	1321.3
308.15 K, x2 = 0.3056	1275.59	1283.8
308.15 K, x2 = 0.408	1314.09	1259.9
308.15 K, x2 = 0.4987	1340.46	1245.3
308.15 K, x2 = 0.602	1364.78	1232
308.15 K, x2 = 0.7047	1384.7	1222.7
308.15 K, x2 = 0.7945	1399.37	1215.9
308.15 K, x2 = 0.8971	1413.61	1210.2
313.15 K, x2 = 0.0606	1101.68	1396.5
313.15 K, x2 = 0.1118	1152.58	1356.3
313.15 K, x2 = 0.2003	1216.47	1309.3
313.15 K, x2 = 0.3056	1270.92	1272.2
313.15 K, x2 = 0.408	1309.33	1248.6
313.15 K, x2 = 0.4987	1335.67	1234.1
313.15 K, x2 = 0.602	1359.98	1220.9
313.15 K, x2 = 0.7047	1379.79	1211.8
313.15 K, x2 = 0.7945	1394.5	1205
313.15 K, x2 = 0.8971	1408.84	1199.3
318.15 K, x2 = 0.0606	1097.57	1383.2
318.15 K, x2 = 0.1118	1147.96	1343.7
318.15 K, x2 = 0.2003	1211.95	1297.3
318.15 K, x2 = 0.3056	1266.24	1260.6
318.15 K, x2 = 0.408	1304.59	1237.3
318.15 K, x2 = 0.4987	1330.88	1223.1
318.15 K, x2 = 0.602	1355.18	1210.1
318.15 K, x2 = 0.7047	1374.95	1201
318.15 K, x2 = 0.7945	1389.43	1194.3
318.15 K, x2 = 0.8971	1404.09	1188.6
